From patent US9040707B2, “Bicyclic thiazoles as allosteric modulators of mGluR5 receptors” (Janssen Pharmaceutica NV, priority 2009, dated 2015) come the findings set out here.

For data set [1], the target named is T1, human mGluR5a receptor (Homo sapiens, UniProt P41594).
T1 construct: host or cells: HEK293A (monoclones H10H and H12H)
The experiment in a line: Functional Assay 2: Ca2+ mobilization, HEK cells with human mGluR5a receptor (H10H cell line). Format: cell-based. The settings on record: for EC50 / Emax: H10H cell line; for EC50: glutamate EC20; for Emax: HEK293, maximum average response at a single concentration, relative to glutamate ECMax. Here is the method:
Human mGluR5a cDNA in pCMV6-XL6 mammalian expression plasmid was purchased from OriGene Technologies, Inc. (catalogue number SC326357) and subcloned into pcDNA3.1(−). […] Monoclones were named for the species (“H” for human) plus the location on the plate (e.g. “10H”).
The following day, the growth medium was removed and the cells were washed with assay buffer containing 1× Hank's balanced salt solution (Invitrogen, Carlsbad, Calif.), 20 mM HEPES, 2.5 mM probenecid, pH 7.4 and left with 20 μL of this reagent. Following this step, the cells were loaded with calcium indicator dye, fluo-4 AM, to a final concentration of 2 μM and incubated for 40-45 min at 37° C. The dye solution was removed and replaced with assay buffer. Cell plates were held for 10-15 min at room temperature and were then loaded into the Functional Drug Screening System 6000 (FDSS 6000, Hamamatsu, Japan).
After establishment of a fluorescence baseline for about 3 seconds, the compounds of the present invention were added to the cells, and the response in cells was measured. 2.3 minutes later an EC20 concentration of the mGluR5 receptor agonist glutamate was added to the cells, and the response of the cells was measured for about 1.7 minutes. All test compounds were dissolved and diluted to a concentration of 10 mM in 100% DMSO and then serially diluted into assay buffer for a 2× stock solution in 0.6% DMSO; stock compounds were then added to the assay for a final DMSO concentration of 0.3% after the first addition to the assay well. Calcium fluorescence measures were recorded as fold over basal fluorescence; raw data was then normalized to the maximal response to glutamate.
The concentration-response curves of compounds of the present invention, obtained in the presence of EC20 of mGluR5 receptor agonist glutamate to determine positive allosteric modulation, were generated using Microsoft Excel with IDBS XLfit add-ins. The raw data file containing all time points was used as the data source in the analysis template. This was saved by the FDSS as a tab-delimitted text file. Data were normalized using a static ratio function (F/F0) for each measurement of the total 350 values per well divided by each well's initial value. […] This is sufficient time to capture the peak amplitude of the cellular calcium response. […] Each of the three values collected at each concentration of test compound were weighted evenly. […] These two methods are in good agreement for curves with a clear plateau at the high concentration range.

The target in data set [2] is T2, human mGluR5 receptor (Homo sapiens, UniProt P41594).
T2 construct: expressed in transfected cells; host or cells: HEK-293
T2 sequence (P41594 21-1180 isoform P41594-2 limits assumed): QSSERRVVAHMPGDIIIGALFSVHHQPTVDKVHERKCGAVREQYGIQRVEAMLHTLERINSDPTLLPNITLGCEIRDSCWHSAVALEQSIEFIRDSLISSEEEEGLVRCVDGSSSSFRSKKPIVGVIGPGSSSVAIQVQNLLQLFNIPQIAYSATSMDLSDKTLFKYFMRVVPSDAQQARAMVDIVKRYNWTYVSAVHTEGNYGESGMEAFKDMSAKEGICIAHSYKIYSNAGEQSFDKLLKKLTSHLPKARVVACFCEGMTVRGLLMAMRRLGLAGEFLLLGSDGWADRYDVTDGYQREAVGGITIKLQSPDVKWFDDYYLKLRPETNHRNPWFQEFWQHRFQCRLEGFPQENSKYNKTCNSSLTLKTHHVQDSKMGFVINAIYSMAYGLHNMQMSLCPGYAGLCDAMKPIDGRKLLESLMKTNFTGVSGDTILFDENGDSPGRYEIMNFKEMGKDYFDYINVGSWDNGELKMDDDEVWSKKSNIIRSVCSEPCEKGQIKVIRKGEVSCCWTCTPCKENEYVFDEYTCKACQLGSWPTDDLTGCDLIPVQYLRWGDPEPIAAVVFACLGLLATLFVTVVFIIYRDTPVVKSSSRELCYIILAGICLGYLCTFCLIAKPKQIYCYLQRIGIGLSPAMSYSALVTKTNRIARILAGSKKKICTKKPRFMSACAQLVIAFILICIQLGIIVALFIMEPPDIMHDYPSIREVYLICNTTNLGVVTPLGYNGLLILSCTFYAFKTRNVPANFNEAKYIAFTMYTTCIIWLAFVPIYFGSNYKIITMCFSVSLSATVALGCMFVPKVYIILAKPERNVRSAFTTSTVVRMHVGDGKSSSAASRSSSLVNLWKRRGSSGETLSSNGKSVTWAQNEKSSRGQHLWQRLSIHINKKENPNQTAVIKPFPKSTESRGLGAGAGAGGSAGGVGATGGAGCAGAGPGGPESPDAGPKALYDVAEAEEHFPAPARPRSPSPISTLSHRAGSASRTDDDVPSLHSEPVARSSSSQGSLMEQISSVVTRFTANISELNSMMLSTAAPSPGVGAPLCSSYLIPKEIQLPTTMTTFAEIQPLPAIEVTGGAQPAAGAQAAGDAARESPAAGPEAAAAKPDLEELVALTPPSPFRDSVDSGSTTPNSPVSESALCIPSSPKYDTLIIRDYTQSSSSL
The experiment in a line: Functional Assay 1: intracellular Ca2+ mobilization, positive allosteric modulation of glutamate EC20 response. The class given is cell-based. The settings on record: for Emax: maximum % effect relative to glutamate ECMax. A general note: Calcium flux is commonly read through the fluorescence of an indicator in the cells.
Procedure: HEK-293 cells were stable transfected with human mGluR5a cDNA in expression vector pcDNA4/TO. For Assay 1, these human mGluR5 receptor over-expressing HEK-293 cells were grown at a density of 40,000 cells/well in PDL-coated 384-well plates. The following day, cells were preloaded with the calcium-sensing dye Fluo-4 AM and various concentrations of test compound were added in the absence of exogenous glutamate to test for direct agonist activity. Shortly (2.5 min) thereafter, an EC20 equivalent of glutamate (˜0.2 μM) was added. The fluorescence signal was monitored using a Hamamatsu Functional Drug Screening System (FDSS) fluorescence plate reader following the addition of compound alone (direct agonist response) and then the further addition of an EC20 of glutamate (positive allosteric modulation response). The pEC50 was defined as the negative log of the test compound concentration which produced an increase in the glutamate EC20-mediated response that was 50% of maximum. Individual amplitudes were expressed as % effect by multiplying each amplitude by 100 and then dividing the product by the mean of the amplitudes derived from the glutamate ECMax-treated wells. Emax values reported in this application are defined as the maximum % effect obtained in a concentration-response curve.

Setting [3] is: human mGluR5 over-expressing HEK-293 cells, glutamate EC20 (~0.2 μM), updated value.

Where a name gives a salt, the structure may show the parent alone.

T1 sequence (P41594 21-1180 isoform P41594-2 limits assumed): as above

Regarding `COCCN1CCc2nc(COc3ccccc3)sc2C1=O` [Compound 4, 6,7-dihydro-5-(2-methoxyethyl)-2-(phenoxymethyl)-thiazolo[5,4-c]pyridin-4(5H)-one], in data set [1], the EC50 (as a rule, the concentration needed to bring the measured effect to its halfway point) was more than 10000 nM and the Emax (usually the maximal effect, on the per cent scale that the assay sets) turned out to be 69%.

In data set [1], `Cc1cccc(COc2nc3c(s2)C(=O)NCC3)c1` [Compound 68, 6,7-dihydro-2-[(3-methylphenyl)methoxy]-thiazolo[5,4-c]pyridin-4(5H)-one] showed an EC50 of more than 30200 nM and an Emax of 20%.

In data set [2] (setting [3]), `N#Cc1cc(COc2nc3c(s2)C(=O)NCC3)ccc1F` [Compound 66, 2-fluoro-5-[[(4,5,6,7-tetrahydro-4-oxothiazolo[5,4-c]pyridin-2-yl)oxy]methyl]-benzonitrile] gave an EC50 of more than 30200 nM. This compound also returned an Emax in data set [2] of 24%.

Consider `O=C1c2sc(OCc3cc(F)cc(F)c3)nc2CCN1c1ccc(F)cc1F` [Compound 73, 5-(2,4-difluorophenyl)-2-[(3,5-difluorophenyl)methoxy]-6,7-dihydro-thiazolo[5,4-c]pyridin-4(5H)-one], for which the melting point (as a rule, the temperature of the solid-liquid transition) was in the range of 127 to 130.5 °C. In data set [1], the EC50 is more than 30200 nM and the Emax worked out at 16%.

For the compound `O=C1c2sc(COc3ccccc3)nc2CCN1CC1CCOCC1` [Compound 3, 6,7-dihydro-2-(phenoxymethyl)-5-[(tetrahydro-2H-pyran-4-yl)methyl]-thiazolo[5,4-c]pyridin-4(5H)-one], in data set [1], it took 2290 nM to reach a half-maximal effect (EC50) and the Emax was found to be 78%.

Take `Cc1ccnc(N2CCc3nc(COc4ccccc4)sc3C2=O)c1` [Compound 51, 6,7-dihydro-5-(4-methyl-2-pyridinyl)-2-(phenoxymethyl)-thiazolo[5,4-c]pyridin-4(5H)-one]: in data set [1], it took 3630 nM to reach a half-maximal effect (EC50) and the Emax came to 75%.

Regarding `C[C@@H](N1CCc2nc(COc3ccccc3F)sc2C1=O)C(C)(C)C` [Compound 33, 2-[(2-fluorophenoxy)methyl]-6,7-dihydro-5-[(1R)-1,2,2-trimethylpropyl]-thiazolo[5,4-c]pyridin-4(5H)-one], the melting point lay in the range of 98.4 to 99.6 °C. In data set [1], this compound had an EC50 of more than 30200 nM and an Emax of 38%.

For the compound `O=C1c2sc(COc3ccccc3)nc2CCN1c1ccncc1F` [Compound 58, 5-(3-fluoro-4-pyridinyl)-6,7-dihydro-2-(phenoxymethyl)-thiazolo[5,4-c]pyridin-4(5H)-one], in data set [1], the EC50 was 562 nM and the Emax came to 71%.

In data set [1], `Cc1ccccc1COc1nc2c(s1)C(=O)NCC2` [Compound 67, 6,7-dihydro-2-[(2-methylphenyl)methoxy]-thiazolo[5,4-c]pyridin-4(5H)-one] gave an EC50 of more than 30200 nM and an Emax of 18%.

In data set [1], `O=C1c2sc(COc3ccccc3)nc2CCN1c1cccnc1` [Compound 48, 6,7-dihydro-2-(phenoxymethyl)-5-(3-pyridinyl)-thiazolo[5,4-c]pyridin-4(5H)-one] gave an EC50 of 4680 nM and an Emax of 78%.

As for `Cc1cccnc1N1CCc2nc(COc3ccccc3)sc2C1=O` [Compound 52, 6,7-dihydro-5-(3-methyl-2-pyridinyl)-2-(phenoxymethyl)-thiazolo[5,4-c]pyridin-4(5H)-one], in data set [1], a half-maximal effect (EC50) was put at 1350 nM and the Emax was determined as 82%.

In data set [1], `CN1CCc2nc(OCc3ccccc3)sc2C1=O` [Compound 24, 6,7-dihydro-5-methyl-2-(phenylmethoxy)-thiazolo[5,4-c]pyridin-4(5H)-one] had an EC50 of 3470 nM and an Emax of 45%.

In data set [1], `C[C@@H](N1CCc2nc(COc3ccc(F)cc3)sc2C1=O)C(C)(C)C` [Compound 34, 2-[(4-fluorophenoxy)methyl]-6,7-dihydro-5-[(1R)-1,2,2-trimethylpropyl]-thiazolo[5,4-c]pyridin-4(5H)-one] gave an EC50 of 1480 nM and an Emax of 48%.

For the compound `CC(C)N1CCc2nc(COc3ccccc3)sc2C1=O` [Compound 63, 6,7-dihydro-5-(1-methylethyl)-2-(phenoxymethyl)-thiazolo[5,4-c]pyridin-4(5H)-one], in data set [1], a half-maximal response (EC50) required 2630 nM and the Emax turned out to be 37.5%.

For `O=C1c2sc(COc3ccccc3)nc2CCN1c1ccc(F)cn1` [Compound 47, 5-(5-fluoro-2-pyridinyl)-6,7-dihydro-2-(phenoxymethyl)-thiazolo[5,4-c]pyridin-4(5H)-one], in data set [1], the response was half-maximal at 251 nM (EC50) and the Emax was 82%.

Turning to `O=C1c2sc(OCc3ccccc3)nc2CCN1c1ccc(F)cc1` [Compound 1, 5-(4-fluorophenyl)-6,7-dihydro-2-(phenylmethoxy)-thiazolo[5,4-c]pyridin-4(5H)-one], the EC50 in data set [2] (setting [3]) was 1290 nM; in data set [2] (original value, which was updated as compound was further tested), 851 nM; in data set [1], 309 nM. For the same compound, the results for the Emax in data set [2] and in data set [1] were 64% and 57%, respectively.

In data set [1], `CC(C)N1CCc2nc(COc3cccc(F)c3)sc2C1=O` [Compound 64, 2-[(3-fluorophenoxy)methyl]-6,7-dihydro-5-(1-methylethyl)-thiazolo[5,4-c]pyridin-4(5H)-one] showed an EC50 of more than 30200 nM and an Emax of 18%.

Take `Cc1ccc(COc2nc3c(s2)C(=O)NCC3)cc1` [Compound 72, 6,7-dihydro-2-[(4-methylphenyl)methoxy]-thiazolo[5,4-c]pyridin-4(5H)-one]: in data set [2] (setting [3]), the EC50 is more than 30200 nM. Moreover, the Emax in data set [2] came out at 10%.

For `O=C1NCCc2nc(OCc3cccc(F)c3)sc21` [Compound 70, 2-[(3-fluorophenyl)methoxy]-6,7-dihydro-thiazolo[5,4-c]pyridin-4(5H)-one trifluoroacetate], in data set [2] (setting [3]), the EC50 was more than 30200 nM. In addition, the Emax in data set [2] is 15%.

In data set [1], `Cc1ccc(N2CCc3nc(COc4ccccc4)sc3C2=O)nc1` [Compound 5, 6,7-dihydro-5-(5-methyl-2-pyridinyl)-2-(phenoxymethyl)-thiazolo[5,4-c]pyridin-4(5H)-one] had an EC50 of 1200 nM and an Emax of 84.5%.

On to `O=C1c2sc(COc3ccccc3)nc2CCN1c1ccccn1` [Compound 45, 6,7-dihydro-2-(phenoxymethyl)-5-(2-pyridinyl)-thiazolo[5,4-c]pyridin-4(5H)-one], for which, in data set [1], the EC50 was 832 nM and the Emax is 85%.

In data set [1], `O=C1c2sc(COc3ccccc3)nc2CCN1c1ncccc1F` [Compound 50, 5-(3-fluoro-2-pyridinyl)-6,7-dihydro-2-(phenoxymethyl)-thiazolo[5,4-c]pyridin-4(5H)-one] gave an EC50 of 1380 nM and an Emax of 69%.

Turning to `O=C1NCCc2nc(OCc3ccccc3)sc21` [Compound 65, 6,7-dihydro-2-(phenylmethoxy)-thiazolo[5,4-c]pyridin-4(5H)-one], the EC50 in data set [2] (setting [3]) is more than 30200 nM. This compound yielded an Emax in data set [2] of 25%.

Consider `O=C1c2sc(COc3ccccc3)nc2CCN1c1ccncc1` [Compound 49, 6,7-dihydro-2-(phenoxymethyl)-5-(4-pyridinyl)-thiazolo[5,4-c]pyridin-4(5H)-one], for which the pEC50 (as a rule, −log10 of the EC50, conventionally taken in molar units) in data set [1] is reported as 5.57.

Regarding `O=C1NCCc2nc(OCc3ccc(F)cc3)sc21` [Compound 71, 2-[(4-fluorophenyl)methoxy]-6,7-dihydro-thiazolo[5,4-c]pyridin-4(5H)-one trifluoroacetate], the EC50 in data set [2] (setting [3]) was more than 30200 nM. For the same compound, the Emax in data set [2] was 8%.

`O=C1NCCc2nc(OCc3ccccc3F)sc21` [Compound 69, 2-[(2-fluorophenyl)methoxy]-6,7-dihydro-thiazolo[5,4-c]pyridin-4(5H)-one trifluoroacetate] gave an EC50 in data set [2] (setting [3]) of more than 30200 nM. The Emax in data set [2] turned out to be 15%.

The compound `COc1cccc(COc2nc3c(s2)C(=O)N(c2ccc(F)cc2F)CC3)c1` [Compound 80, 5-(2,4-difluorophenyl)-6,7-dihydro-2-[(3-methoxyphenyl)methoxy]-thiazolo[5,4-c]pyridin-4(5H)-one] showed an EC50 in data set [2] (setting [3]) of more than 30200 nM. The Emax in data set [2] was 26%.

As to `COc1ccccc1N1CCc2nc(COc3ccccc3F)sc2C1=O` [Compound 36, 2-[(2-fluorophenoxy)methyl]-6,7-dihydro-5-(2-methoxyphenyl)-thiazolo[5,4-c]pyridin-4(5H)-one], in data set [1], it took 2000 nM to reach a half-maximal effect (EC50) and the Emax was found to be 71%.
